Tests used:
[1] = target: Recombinant human Top2a (Homo sapiens, UniProt P11388); experiment: Top2 decatenation assay; type: biochemical; conditions: in vitro decatenation of kDNA
Experimental: Top2 decatenation assay: Recombinant human Top2a (15 nM) was incubated with 80 ng catenated kinetoplast DNA (Topogen, TG2013) in Top2 reaction buffer (50 mM Tris pH8, 150 mM NaCl, 10 mM MgCl2, 0.5 mM DTT, 30 μg/ml BSA) with 1-100 μM of either doxorubicin, MYCMI-7, ellipticine or camptothecin for 10 minutes at 37° C. Drug dilutions were made in a DMSO/H2O solution so that a final concentration of 1% DMSO was consistent across all samples. The reaction was stopped with the addition of SDS to a final concentration of 1% and the Top2a was digested by Proteinase K at 55° C. for 10 minutes. DNA was purified by phenol:chloroform extraction before running on a 1% agarose gel either containing or post-stained with 0.5 μg/ml ethidium bromide. The decatenated products were quantified, normalised to the Top2α+DMSO control and plotted using GraphPad Prism.
First, we utilized an in vitro TOP2A decatenation assay. TOP2 enzymes decatenate kinetoplast DNA (kDNA) converting a network of interlocking DNA rings into individual rings that can be separated by agarose gel electrophoresis.

[2] = test system: MYC protein; experiment: steady state MYC protein level by western blot; type: cell-based; conditions: reconstituted HO15.19 MYC knockout Rat1 cells, 5 μM overnight
Experimental: (§1) FIG. 2: MYCMI-7 downregulates MYC and MYCN protein expresión. A) Steady state levels of MYC protein in MCF7 cells after 17 hours exposure to indicated concentrations MYCMI-7 or ellipticine B) MYC mRNA expression in MCF7 cells after treatment with MYCMI-7 for various time points. C) Steady state levels of MYC protein in different HCT116 cell lines (WT, FBW7−/− or p53−/−) after 17 hours exposure to 5 μM MYCMI-7. Endogenous MYC was immunoprecipitated and detected by western blot analysis. D) Cycloheximide (CHX) chase in HCT116 cells. Cells were subjected to 5 μM MYCMI-7 30 min prior cycloheximide addition. Cells were harvested after the indicated time points, MYC was immunoprecipitated using N262 antibody and the MYC levels analyzed using western blot (C33 antibody). E) CHX chase after MYCMI-7 treatment performed as in (D) using Fbxw7-deficient HCT116 cells. F) Stable expression of wt, T58A or S62A MYC in HO15.19 MYC−/− cells. The cells were treated with 5 μM MYCMI-7 overnight, and MYC expression was analyzed by western blot. G) Cartoon showing a linear structural representation of wt MYC and indicated mutants. H-J) Expression of MYC mutants after MYCMI-7 treatment. COS-7 cells were transfected with CMV-driven vectors containing HA-tagged wt MYC or mutants for 24 hrs and treated with 5 μM MYCMI-7 for 17 hrs. The DN (H) and DC (I) MYC mutants encodes the C-terminal and N-terminal halves of the MYC protein, respectively. DBr (J) lacks the DNA-binding basic region of the protein. A-J). Representative western blots out of at least three experiments are shown.
(§2) For western blot equal amounts of proteins ([…]) were separated on a 4-12% SDS-PAGE gel. Proteins were transferred to Immobilion-P membrane (Millipore) and detected by immunostaining and chemoluminescence (Immobilion western HRP substrate; Millipore). For immunoprecipitations 500-1000 μg of protein was used. […] Briefly, cells were crosslinked with 1% formaldehyde on ice for 6 minutes. Nuclear chromatin was sonicated on ice to fragments from 0.3 kb to 0.5 kb. Nuclear chromatin equivalent to 2.5×10^7 cells was immunoprecipitated with 2 μg antibody.

[3] = target: MYC protein (Homo sapiens, UniProt P01106); experiment: steady state MYC protein level by western blot; type: cell-based; conditions: for MYC protein level: 17 hours, 5 μM
Chain of MYC protein (Homo sapiens, UniProt P01106) (P01106 16-454): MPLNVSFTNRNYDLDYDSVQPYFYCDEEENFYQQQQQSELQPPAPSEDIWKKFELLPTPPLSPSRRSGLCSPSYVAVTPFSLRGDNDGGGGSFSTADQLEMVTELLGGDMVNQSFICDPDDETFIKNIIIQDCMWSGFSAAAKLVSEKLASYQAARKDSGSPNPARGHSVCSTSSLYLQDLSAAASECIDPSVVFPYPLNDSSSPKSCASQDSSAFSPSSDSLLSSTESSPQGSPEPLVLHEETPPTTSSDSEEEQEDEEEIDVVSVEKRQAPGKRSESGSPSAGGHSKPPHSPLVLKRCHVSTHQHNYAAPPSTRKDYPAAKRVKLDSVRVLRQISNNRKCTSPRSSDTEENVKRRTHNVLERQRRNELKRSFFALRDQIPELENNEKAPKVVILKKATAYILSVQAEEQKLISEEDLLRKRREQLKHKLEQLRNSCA
Experimental: as §1, §2

Chain of Recombinant human Top2a (P11388 whole entry): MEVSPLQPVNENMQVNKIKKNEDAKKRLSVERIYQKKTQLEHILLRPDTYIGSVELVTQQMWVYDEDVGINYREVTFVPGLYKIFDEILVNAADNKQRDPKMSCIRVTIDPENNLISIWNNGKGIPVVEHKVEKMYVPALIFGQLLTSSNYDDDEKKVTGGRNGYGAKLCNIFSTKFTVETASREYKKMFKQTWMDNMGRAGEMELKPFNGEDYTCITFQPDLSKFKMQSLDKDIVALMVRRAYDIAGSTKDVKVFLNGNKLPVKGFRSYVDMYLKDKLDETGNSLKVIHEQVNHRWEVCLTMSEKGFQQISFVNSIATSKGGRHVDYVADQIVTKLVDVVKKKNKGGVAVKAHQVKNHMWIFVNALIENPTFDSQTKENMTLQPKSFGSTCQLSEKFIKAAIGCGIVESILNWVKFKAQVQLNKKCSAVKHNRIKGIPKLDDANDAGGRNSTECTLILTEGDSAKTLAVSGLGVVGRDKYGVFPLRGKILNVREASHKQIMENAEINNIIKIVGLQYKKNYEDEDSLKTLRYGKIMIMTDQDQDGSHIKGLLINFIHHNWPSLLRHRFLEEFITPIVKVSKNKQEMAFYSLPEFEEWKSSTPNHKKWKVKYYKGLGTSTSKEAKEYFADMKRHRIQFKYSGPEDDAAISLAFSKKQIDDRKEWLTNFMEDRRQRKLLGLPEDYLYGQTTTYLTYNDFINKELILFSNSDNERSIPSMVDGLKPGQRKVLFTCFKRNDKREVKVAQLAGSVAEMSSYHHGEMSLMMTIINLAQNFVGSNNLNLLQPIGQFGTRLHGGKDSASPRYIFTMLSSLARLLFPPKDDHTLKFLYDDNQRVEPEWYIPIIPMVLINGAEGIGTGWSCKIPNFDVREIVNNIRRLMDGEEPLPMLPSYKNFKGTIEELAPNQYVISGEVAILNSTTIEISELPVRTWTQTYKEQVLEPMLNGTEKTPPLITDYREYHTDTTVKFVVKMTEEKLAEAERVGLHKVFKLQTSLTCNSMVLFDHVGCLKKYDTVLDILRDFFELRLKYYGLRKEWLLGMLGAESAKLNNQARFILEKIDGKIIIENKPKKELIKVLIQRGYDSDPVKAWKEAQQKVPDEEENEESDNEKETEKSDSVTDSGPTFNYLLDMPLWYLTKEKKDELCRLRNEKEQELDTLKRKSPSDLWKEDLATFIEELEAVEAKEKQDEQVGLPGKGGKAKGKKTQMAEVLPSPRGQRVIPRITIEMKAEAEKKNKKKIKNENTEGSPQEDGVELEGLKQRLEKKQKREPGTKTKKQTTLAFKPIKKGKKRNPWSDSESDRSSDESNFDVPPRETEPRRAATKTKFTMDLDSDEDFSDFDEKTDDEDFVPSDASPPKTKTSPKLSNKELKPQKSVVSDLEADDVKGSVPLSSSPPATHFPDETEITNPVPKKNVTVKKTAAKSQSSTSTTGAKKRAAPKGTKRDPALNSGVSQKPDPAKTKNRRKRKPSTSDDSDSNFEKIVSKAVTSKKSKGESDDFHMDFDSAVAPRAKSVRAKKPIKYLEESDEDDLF

CCN(CC)CC[n+]1ccc2c(C)c3[nH]c4ccccc4c3c(C)c2c1 [MYCMI-7, 2-(5,11-Dimethyl-6H-25-pyrido[4,3-b]carbazol-2-yl)-N,N-diethylethanamine bromide]
concentration at which TOP2A inhibition starts [1]: higher than 10 μM | concentration of complete TOP2A inhibition [1]: 100 µM | levels of wt, T58A and S62A MYC [2]: reduced the levels of both wt and the MYC mutants | phosphorylation of MYC at Thr-58 or Ser-62 [3]: did not increase | MYC protein level ([3]; FBXW7−/− HCT116 cells): unaffected | steady state level of MYC protein ([3]; MCF7 cells, 17 hrs, 5 μM MYCMI-7): decreased drastically | MYC protein level ([3]; wt and p53 null HCT116 cells): strongly reduced
